Patent publication US6355785B1, “Guanosine-rich oligonucleotide integrase inhibitors” (Aronex Pharmaceuticals, Inc., priority 1993, dated 2002)
Where “and” joins values, the source holds several entries; their conditions need not be identical. Identical values can stand only once. Like-named read-outs stand apart in the source and are kept apart here. Marks after values point to notes of the source that are not given here.

Legend:
[1] = system: HIV-1 strains (SKI, RF, DV, IIIB, ADP/141); test: microbe, parasite or virus in culture; type: cell-based
HIV-1IIIB = test: Time of drug addition study, MT-4 cells (p24); type: cell-based; conditions: 100-fold IC50, MOI 1, p24 at 29 hour
HIV-1RF = test: HeLa-CD4-LTR-β-galactosidase cell virus infection assay; type: cell-based
[2] = system: CD4- and gp120-mediated cell fusion; test: cells; type: cell-based; conditions: HL2/3, read-out: IC50 CD4- and gp120-mediated cell fusion
HIV-1SKI = test: Single cycle analysis of HIV-1 cDNA, CEM-SS cells; type: cell-based; conditions: 10- to 100-fold over IC50
[3] = target: HIV-1 integrase (wild-type and deletion mutants) (Human immunodeficiency virus type 1 group M subtype B, UniProt P12497); test: UV crosslinking DNA binding experiments; conditions: enzyme preincubated with oligo
Experimental: UV crosslinking experiments. The method used has been described by Engleman et al. Engelman, et al., J. Virol. 68, 5911-5917 (1994). Briefly, integrase (at the indicated concentration) was incubated with substrate in reaction buffer as above for 5 minutes at 30° C. Reactions were then irradiated with a UV transilluminator (254 nm wavelength) from 3 cm above (2.4 mW/cm2) at room temperature for 10 minutes. An equal volume (16 μL) of 2X SDS-PAGE buffer (100 mM Tris, pH 6.8, 4% 2-mercaptoethanol, 4% SDS, 0.2% bromophenol blue, 20% glycerol) was added to each reaction. Twenty μL aliquots were heated at 95° C. for 3 minutes prior to loading on a 12% or 18% SDS-polyacrylamide gel. The gel was run at 120 V for 1.5 hours, dried, and exposed in a Phosphorlmager cassette. […] For the competition experiments (FIG. 29), integrase (200 nM) was preincubated with either the radiolabeled viral DNA substrate (20 nM) or T30177 (20 nM) for 5 minutes at 30° C. prior to the addition of competitor DNA at the indicated concentration.

[4] = target: recombinant HIV-1 integrase (wild-type) (Human immunodeficiency virus type 1 group M subtype B, UniProt P12497); test: HIV-1 integrase 3′-processing and strand transfer assays; type: biochemical; set-up: Purified recombinant HIV-1 integrase enzyme (wild-type) was a generous gift from Dr. R. Craigie; purchased gift of Dr. R. Craigie, Laboratory of Molecular Biology, NIDDK (not bought)
Experimental: Integrase enzyme assays. Purified recombinant HIV-1 integrase enzyme (wild-type) was a generous gift from Dr. R. Craigie, Laboratory of Molecular Biology, National Institute of Diabetes and Digestive and Kidney Diseases. The enzyme (0.25 μM) was preincubated in reaction buffer at 20° C. for 30 minutes. All 3′-processing and strand-transfer reactions were performed as described previously by Fresen et al. (Fresen, et al., Proc. Natl. Acad. Sci. USA 90:2399-2403 (1993)) and Mazumder et al. (Mazumder, et al., Proc. Natl. Acad. Sci. USA 91:5771-5775 (1994)). Enzyme reactions were quenched by the addition of Maxam-Gilbert loading dye, and an aliquot was electrophoresed on a denaturing 20% polyacrylamide gel. Gels were then dried and subjected to autoradiography using Kodax XAR-2 film or exposed in a Molecular Dynamics Phospholmager cassette.
Integrase was preincubated at a final concentration of 200 (for HIV-1 and HIV-2) or 600 nM (for FIV and SIV) with inhibitor in reaction buffer (50 mM Nac1, 1 mM HEPES, pH 7.5, 50 μM dithiothreitol, 10% glycerol (wt/vol), 7.5 mM MnCl2 or MgCL2 (when specified), 0.1 mg/mL bovine serum albumin, 20 mM 2-mercaptoethanol, 10% dimethyl sulfoxide, and 25 mM MOPS, pH 7.2) at 30° C. for 30 minutes. When magnesium was used as the divalent metal ion, polyethylene glycol was added at a final concentration of 5% to increase activity as previously described (Engelman & Craigie, 1995). Preincubation for 30 minutes of the enzyme with inhibitor was performed to optimize increases the inhibitory activity in the 3′-processing reaction (Fesen et al., 1994). Then, 30 nM of the 5′-end ^32P-labeled linear oligonucleotide substrate was added, and incubation was continued for an additional 1 hr. The final reaction volume was 16 μL.
Electrophoresis and quantitation. Reactions were quenched by the addition of an equal volume […] of loading dye (98% deionized formamide, 10 mM EDTA, 0.025% xylene cyanol, 0.025% bromophenol blue). An aliquot (5 μL) was electrophoresed on a denaturing 20% polyacrylamide gel (0.09 M Tris-borate pH 8.3, 2 mM EDTA, 20% acrylamide, 8M urea). Gels were dried, exposed in a Molecular Dynamics Phosphorimager cassette, and analyzed using a Molecular Dynamics phosphorimager (Sunnyvale, Calif.). Percent inhibition was calculated using the following equation:
where C, N, and D are the fractions of 21mer substrate converted to 19mer (3′-processing product) or strand transfer products for DNA alone, DNA plus integrase, and integrase plus drug, respectively.
Antiviral assay. The RF laboratory strain of HIV-1 was used to infect established cell lines for one hour at 37° C. prior to washing and resuspension in medium containing increasing concentrations of drug. […] Purified recombinant HIV-1 integrase enzyme (wild-type) was a generous gift from Dr. Craigie, Laboratory of Molecular Biology, NIDDK. All 3′-processing and strand-transfers were performed as described previously by Fresen et al. (Fresen et al. (1993) Proc. Natl. Acad. Sci. VSA 90, 2399-2403) and Mazurnder et al. (Mazumder et al. (1994) Proc. Natl. Acad. Sci. USA 91, 5771-75).

[5] = Thermal denaturation of oligomer fold (UV, Tm); type: physicochemical
[6] = Oligomer folding by circular dichroism; conditions: for midpoint of K+ induced folding transition (CD, 264 nm): KCl, 25° C., 20 mM Li3PO4
[7] = target: T1, recombinant RT (HIV-1BH10) (Human immunodeficiency virus type 1 group M subtype B, UniProt P03366); test: Reverse transcriptase enzyme inhibition assays; type: biochemical; conditions: read-out: IC50 recombinant HIV-1 RT
T1 construct: Purified recombinant RT (HIV-1BH10) was obtained from the University of Alabama; purchased University of Alabama, Center for AIDS research (obtained from)

HIV-1 strain DV = test: HIV-1 induced syncytia formation assay in SUP T1 cells; type: cell-based
HIV-1DV [8] = test: HIV-1 p24 production in SUP T1 cells; type: cell-based
HIV-1 RT = HIV-1 RT (Human immunodeficiency virus type 1 group M subtype B, UniProt P04585); test: In vitro inhibition of HIV-1 RT (kinetic analysis); type: biochemical
HIV-1DV [9] = test: Analysis of HIV-1 RNA and DNA in single cycle assays, SUP T1; type: cell-based
[10] = Human immunodeficiency virus 1, IIIB, CEM-SS, read-out: Antiviral Assay IC50 IIIB, HIV-1 IIIB, CEM-SS or MT4
[11] = Human immunodeficiency virus 1, IIIB, CEM-SS, read-out: Antiviral Assay IC50 RF, HIV-1 RF, CEM-SS or MT4
[12] = Human immunodeficiency virus 1, IIIB, CEM-SS, read-out: Antiviral Assay IC50 SKI, HIV-1 SKI, CEM-SS or MT4
[13] = HIV-1 IIIB, CEM-SS or MT4, read-out: Antiviral Assay IC50 IIIB
[14] = HIV-1 RF, CEM-SS or MT4, read-out: Antiviral Assay IC50 RF
[15] = HIV-1 SKI, CEM-SS or MT4, read-out: Antiviral Assay IC50 SKI
[16] = anti-HIV-1 virus production, read-out: Cell Culture IC50
[17] = 3′-processing, read-out: Anti-Integrase Assay IC50 3′-proc
[18] = read-out: Enzyme IC50 3-′process
[19] = strand transfer, read-out: Anti-Integrase Assay IC50 strand tran.
[20] = cell culture, read-out: IC50 HIV-1RF

Molecule: COc1cc(-c2ccc(/N=N/c3ccc4c(S(=O)(=O)O)cc(S(=O)(=O)O)c(N)c4c3O)c(OC)c2)ccc1/N=N/c1ccc2c(S(=O)(=O)O)cc(S(=O)(=O)O)c(N)c2c1O [CSB, Chicago sky blue]
- IC50 [1, 10]: 600 nM
- IC50 [1, 11]: 1700 nM
- IC50 [1, 12]: 1600 nM
- delay of drug addition post-infection at which inhibitory effect is lost (HIV-1IIIB): one hour post-virus infection
- IC50 (HIV-1RF; Human immunodeficiency virus 1, HIV-1RF, read-out: IC50 β-galactosidase production, virus infection assay): 260 nM
- IC50 [2]: 800 nM
- viral cDNA 12 hours post-infection, drug added at time of infection (HIV-1SKI): no detectable viral DNA

Molecule: CC(C)OC(=O)c1cc(NC(=S)OC(C)C)ccc1Cl [UC38]
- IC50 [1, 13]: 90 nM
- IC50 [1, 14]: 20 nM
- IC50 [1, 15]: 90 nM
- viral cDNA 12 hours post-infection, drug added at time of infection (HIV-1SKI): no detectable viral DNA

Molecule: 5′-ggttggtgtggttgg-3′ [T30659, reference compound]
- IC50 [1, 13]: > 20000 nM
- IC50 [1, 14]: > 20000 nM
- IC50 [1, 15]: 2810 nM
- IC50 [1, 16]: > 20000 nM
- inhibition of integrase binding to radiolabeled U5 DNA substrate [3]: only modest inhibition of DNA binding
- IC50 [4, 17]: > 500 nM
- IC50 [4, 18]: 750 nM
- IC50 [4, 19]: > 500 nM

Molecule: Nc1ccn([C@H]2CC[C@@H](CO)O2)c(=O)n1 [ddC, 2′,3′-dideoxycytidine]
- IC50 [1, 10]: 78 nM
- IC50 [1, 11]: 57 nM
- IC50 [1, 12]: 260 nM
- IC50 ([1]; Human immunodeficiency virus 1, IIIB, CEM-SS, read-out: IC50 virus production, HIV-1 RF, CEM-SS, MOI 0.01): 57 nM
- viral cDNA 12 hours post-infection, drug added at time of infection (HIV-1SKI): no detectable viral DNA
- IC50 [4, 17]: > 1000 nM
- IC50 [4, 19]: > 1000 nM

Molecule: 5′-gggtgggtgggtgggt-3′ [T30695]
- IC50 [1, 16]: 70 nM
- IC50 [1, 20]: 70 nM
- Tm ([5]; 1 mM KCl): 67 °C
- Tm ([5]; 10 mM KCl, calculated from linear fit): 87* ° C.
- Tm ([5]; 180 mM KCl, calculated from linear fit): 110* ° C.
- midpoint of K+ induced folding transition (CD, 264 nm) [6]: ~0.02 mM
- midpoint of Rb+ induced folding transition (CD) ([6]; RbCl): 0.5 mM
- IC50 [4, 18]: 20 nM
- IC50 ([4]; read-out: Enzyme IC50 Stran Trans): 60 nM
- IC50 ([4]; read-out: IC50 3′-PROC): 43 ± 17 nM
- IC50 ([4]; read-out: IC50 STR · TRA): 24 ± 4 nM

Molecule: 5′-GTGATGGGTGGGTGGGT-3′ (phosphorothioate termini, further chemistry not given here) [T30526, pPT, dA for dG, tetrad-disrupted mutant of T30177]
- IC50 [1, 14]: 11700 nM
- less potent than T30177 at inhibiting virus-infected cell β-galactosidase production (HIV-1RF): 10-15 fold
- IC50 [4, 19]: 123 nM

Molecule: Cc1cn([C@H]2C[C@H](N=[N+]=[N-])[C@@H](COP(=O)(O)OP(=O)(O)OP(=O)(O)O)O2)c(=O)[nH]c1=O [AZT 5′-triphosphate, reference compound]
- IC50 ([7]; template gapped duplex DNA, duplicate experiments): 470 nM and 400 nM
- IC50 ([7]; template poly(rA)p(dT)12-18, duplicate experiments): 590 nM and 600 nM

Molecule: 5′-gtggtgggtgtggtgggt-3′ (GTGGTGGGTGTGGTGGGT; phosphorothioate termini, further chemistry not given here) [T30676, pPT variant T30177]
- IC50 [1, 16]: 1000 nM
- IC50 [1, 20]: 1000 nM
- Tm ([5]; 1 mM KCl): 33 °C
- Tm ([5]; 10 mM KCl): 46 °C
- Tm ([5]; 180 mM KCl): 65 °C
- midpoint of K+ induced folding transition (CD, 264 nm) [6]: 0.27 mM
- IC50 [4, 18]: 134 nM
- IC50 ([4]; read-out: IC50 STR · TRA): 134 ± 16 nM

Molecule: 5′-gtggtgggtgggtgggt-3′ (GTGGTGGGTGGGTGGGT; phosphodiester, 3'-propanolamine, further chemistry not given here) [I100-15, 17 mer PD, 3′-propanolamine]
- T.I. (therapeutic index) (HIV-1 strain DV): >200
- IC50 (HIV-1 strain DV; SUP T1, HIV-1DV, four days, read-out: IC50 Syn (syncytium inhibition)): 125 nM
- IC50 (HIV-1 strain DV; size variants of I100-15, read-out: IC50 Syn.): 160 nM
- Percent p24 relative to infected untreated control, Day 7 (HIV-1DV [8]; 2.5 uM, drug removed day 4): 0.0%
- Percent p24 relative to infected untreated control, Day 11 (HIV-1DV [8]; 2.5 uM, drug removed day 4): 0.0%
- Percent p24 relative to infected untreated control, Day 4 (HIV-1DV [8]; 2.5 uM, medium replaced day 4): 0.0%
- IC50 (HIV-1DV [8]; SUP T1, HIV-1DV, four days): 80 nM
- Ki (HIV-1 RT): > 5000 nM
- IC50 (HIV-1 RT; read-out: ID50 (the source's name)): > 5000 nM
- viral DNA synthesis (PCR) (HIV-1DV [9]; 36 hr post-infection): minimal
- HIV-1 specific transcript (RT-PCR) (HIV-1DV [9]; drug added at zero hours): reduced level of HIV-1 specific transcript
